According to ChEMBL document CHEMBL1130642, “Conformationally constrained NO synthase inhibitors: rigid analogs of L-N-iminoethylornithine” (Bioorg Med Chem Lett, 1998):

Molecular target: T1, Nitric oxide synthase, inducible (Mus musculus, UniProt P29477)
T1 sequence (P29477 whole entry): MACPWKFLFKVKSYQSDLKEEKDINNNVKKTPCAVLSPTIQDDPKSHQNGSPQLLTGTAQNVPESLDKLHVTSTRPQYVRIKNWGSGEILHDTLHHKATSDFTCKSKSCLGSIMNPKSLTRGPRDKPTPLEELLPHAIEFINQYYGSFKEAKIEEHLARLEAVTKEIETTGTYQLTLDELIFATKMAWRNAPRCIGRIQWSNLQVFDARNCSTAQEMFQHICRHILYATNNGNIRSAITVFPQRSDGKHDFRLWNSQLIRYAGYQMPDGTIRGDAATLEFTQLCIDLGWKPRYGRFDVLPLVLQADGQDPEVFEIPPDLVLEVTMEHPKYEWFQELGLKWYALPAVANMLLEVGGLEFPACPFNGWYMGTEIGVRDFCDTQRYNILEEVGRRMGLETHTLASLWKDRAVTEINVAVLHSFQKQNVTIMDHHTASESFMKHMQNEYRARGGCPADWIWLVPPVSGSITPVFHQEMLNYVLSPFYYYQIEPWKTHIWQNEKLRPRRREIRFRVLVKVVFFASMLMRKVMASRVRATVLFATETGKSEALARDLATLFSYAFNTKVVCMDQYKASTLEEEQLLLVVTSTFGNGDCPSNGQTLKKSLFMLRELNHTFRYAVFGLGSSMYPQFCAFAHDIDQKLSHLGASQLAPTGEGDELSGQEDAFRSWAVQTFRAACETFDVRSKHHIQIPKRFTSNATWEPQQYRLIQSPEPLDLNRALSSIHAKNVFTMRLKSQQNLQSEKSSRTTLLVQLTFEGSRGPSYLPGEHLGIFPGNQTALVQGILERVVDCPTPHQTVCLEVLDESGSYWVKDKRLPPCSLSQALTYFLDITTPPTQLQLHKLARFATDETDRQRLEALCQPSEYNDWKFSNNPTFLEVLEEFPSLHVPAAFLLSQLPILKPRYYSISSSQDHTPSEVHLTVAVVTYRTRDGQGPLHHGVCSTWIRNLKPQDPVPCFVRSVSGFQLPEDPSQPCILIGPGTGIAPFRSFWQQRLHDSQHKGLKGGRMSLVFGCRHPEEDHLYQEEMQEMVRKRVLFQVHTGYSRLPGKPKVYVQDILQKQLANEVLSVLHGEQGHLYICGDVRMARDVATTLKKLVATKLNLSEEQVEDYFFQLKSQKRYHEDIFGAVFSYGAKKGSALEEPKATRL
Experiment: Compound was evaluated for inhibitory activity against iNOS obtained from RAW 264.7 cells.
Format: cell-based

Question: With COC(=O)[C@@H](N)[C@@H]1CC[C@H](/N=C(/C)N)C1 as the molecule, how does the IC50 read?
Answer: Its IC50 is > 200 µM.

Question: How did the IC50 turn out when CC(=N)NCCC[C@H](N)C(=O)O [L-NIO] was run?
Answer: Its IC50 is 9 µM.

Question: How did the IC50 turn out when COC(=O)[C@@H](N)[C@H]1CC[C@H](/N=C(/C)N)C1 was run?
Answer: Its IC50 is 50 µM.

Question: Which IC50 does the source give for NC1=NC[C@H](C[C@H](N)C(=O)O)C1 here?
Answer: The IC50 was 25 µM.

Question: With CC(=N)N1CC[C@@H](C[C@H](N)C(=O)O)C1 as the molecule, how does the IC50 read?
Answer: The IC50 was > 200 µM.

Question: For CC(=N)N1CC[C@H](C[C@H](N)C(=O)O)C1, which IC50 is on record?
Answer: The IC50 was 40 µM.

Question: With COC(=O)[C@@H](N)[C@@H]1CC[C@@H](N=C(C)N)C1 as the molecule, how does the IC50 read?
Answer: The IC50 was > 200 µM.

Question: Which IC50 does the source give for COC(=O)[C@@H](N)[C@H]1CC[C@@H](N=C(C)N)C1 here?
Answer: Its IC50 is 47 µM.

Question: With NC1=NC[C@@H](C[C@H](N)C(=O)O)C1 as the molecule, how does the IC50 read?
Answer: The IC50 was 36 µM.
